The target of data set [1] is T1, human AR (androgen receptor) (Homo sapiens, UniProt P10275).
T1 construct: expressed in transfected cells; host or cells: HEK293
T1 sequence (P10275 1-920): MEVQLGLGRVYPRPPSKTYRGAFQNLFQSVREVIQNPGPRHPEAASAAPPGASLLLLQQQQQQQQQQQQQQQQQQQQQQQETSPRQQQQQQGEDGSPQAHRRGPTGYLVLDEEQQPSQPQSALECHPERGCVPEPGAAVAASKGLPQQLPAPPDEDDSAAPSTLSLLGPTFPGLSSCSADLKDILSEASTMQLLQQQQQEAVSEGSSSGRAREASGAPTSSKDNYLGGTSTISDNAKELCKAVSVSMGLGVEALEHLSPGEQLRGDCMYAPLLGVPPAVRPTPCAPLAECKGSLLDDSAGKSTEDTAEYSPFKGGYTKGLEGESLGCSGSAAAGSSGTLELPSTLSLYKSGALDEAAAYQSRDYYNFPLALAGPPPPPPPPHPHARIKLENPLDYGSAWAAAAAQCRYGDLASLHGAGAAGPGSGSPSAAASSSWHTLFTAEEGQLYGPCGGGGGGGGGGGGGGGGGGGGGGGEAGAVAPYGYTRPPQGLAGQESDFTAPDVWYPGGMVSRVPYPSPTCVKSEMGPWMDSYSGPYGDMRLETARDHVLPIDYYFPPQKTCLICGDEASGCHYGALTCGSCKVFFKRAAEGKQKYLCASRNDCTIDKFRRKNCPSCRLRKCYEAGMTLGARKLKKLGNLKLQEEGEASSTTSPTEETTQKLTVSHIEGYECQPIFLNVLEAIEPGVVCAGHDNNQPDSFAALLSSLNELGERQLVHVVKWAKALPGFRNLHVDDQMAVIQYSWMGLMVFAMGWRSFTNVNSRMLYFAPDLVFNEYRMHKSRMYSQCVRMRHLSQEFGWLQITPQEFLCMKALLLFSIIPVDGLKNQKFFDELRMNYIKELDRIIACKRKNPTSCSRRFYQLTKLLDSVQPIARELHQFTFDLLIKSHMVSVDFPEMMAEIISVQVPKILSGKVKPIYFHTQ
In words: Steroid hormone nuclear receptor binding assay, AR. To be noted: HEK293 lysate, [3H]-methyltrienolone.

In data set [2] the target is T2, human GR (glucocorticoid receptor) (Homo sapiens, UniProt P04150).
T2 construct: expressed in transfected cells; host or cells: HEK293
T2 sequence (P04150 1-777): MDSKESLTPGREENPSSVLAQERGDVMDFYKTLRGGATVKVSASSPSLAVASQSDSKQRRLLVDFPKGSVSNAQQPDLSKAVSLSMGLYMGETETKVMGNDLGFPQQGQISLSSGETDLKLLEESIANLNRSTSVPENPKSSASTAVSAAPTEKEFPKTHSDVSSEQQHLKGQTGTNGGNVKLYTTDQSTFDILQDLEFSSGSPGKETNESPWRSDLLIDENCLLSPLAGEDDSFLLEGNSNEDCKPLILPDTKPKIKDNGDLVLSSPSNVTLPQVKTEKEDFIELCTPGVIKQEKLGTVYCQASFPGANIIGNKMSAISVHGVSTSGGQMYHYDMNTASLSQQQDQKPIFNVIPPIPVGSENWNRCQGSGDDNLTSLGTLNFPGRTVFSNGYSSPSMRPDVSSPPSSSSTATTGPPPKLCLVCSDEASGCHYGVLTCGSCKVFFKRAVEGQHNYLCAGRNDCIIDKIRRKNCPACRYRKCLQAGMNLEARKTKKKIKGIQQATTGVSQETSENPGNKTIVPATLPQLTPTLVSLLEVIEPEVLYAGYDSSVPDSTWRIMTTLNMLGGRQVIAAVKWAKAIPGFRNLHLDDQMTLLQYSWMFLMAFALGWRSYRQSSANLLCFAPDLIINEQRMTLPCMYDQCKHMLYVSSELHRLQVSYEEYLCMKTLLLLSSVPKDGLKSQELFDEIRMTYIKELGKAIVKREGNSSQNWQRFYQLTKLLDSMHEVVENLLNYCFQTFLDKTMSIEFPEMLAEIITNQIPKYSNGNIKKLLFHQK
In words: Steroid hormone nuclear receptor binding assay, GR.

Data set [3] deals with T3, human MR (mineralocorticoid receptor) (Homo sapiens, UniProt P08235).
T3 construct: expressed in transfected cells; host or cells: HEK293
T3 sequence (P08235 1-984): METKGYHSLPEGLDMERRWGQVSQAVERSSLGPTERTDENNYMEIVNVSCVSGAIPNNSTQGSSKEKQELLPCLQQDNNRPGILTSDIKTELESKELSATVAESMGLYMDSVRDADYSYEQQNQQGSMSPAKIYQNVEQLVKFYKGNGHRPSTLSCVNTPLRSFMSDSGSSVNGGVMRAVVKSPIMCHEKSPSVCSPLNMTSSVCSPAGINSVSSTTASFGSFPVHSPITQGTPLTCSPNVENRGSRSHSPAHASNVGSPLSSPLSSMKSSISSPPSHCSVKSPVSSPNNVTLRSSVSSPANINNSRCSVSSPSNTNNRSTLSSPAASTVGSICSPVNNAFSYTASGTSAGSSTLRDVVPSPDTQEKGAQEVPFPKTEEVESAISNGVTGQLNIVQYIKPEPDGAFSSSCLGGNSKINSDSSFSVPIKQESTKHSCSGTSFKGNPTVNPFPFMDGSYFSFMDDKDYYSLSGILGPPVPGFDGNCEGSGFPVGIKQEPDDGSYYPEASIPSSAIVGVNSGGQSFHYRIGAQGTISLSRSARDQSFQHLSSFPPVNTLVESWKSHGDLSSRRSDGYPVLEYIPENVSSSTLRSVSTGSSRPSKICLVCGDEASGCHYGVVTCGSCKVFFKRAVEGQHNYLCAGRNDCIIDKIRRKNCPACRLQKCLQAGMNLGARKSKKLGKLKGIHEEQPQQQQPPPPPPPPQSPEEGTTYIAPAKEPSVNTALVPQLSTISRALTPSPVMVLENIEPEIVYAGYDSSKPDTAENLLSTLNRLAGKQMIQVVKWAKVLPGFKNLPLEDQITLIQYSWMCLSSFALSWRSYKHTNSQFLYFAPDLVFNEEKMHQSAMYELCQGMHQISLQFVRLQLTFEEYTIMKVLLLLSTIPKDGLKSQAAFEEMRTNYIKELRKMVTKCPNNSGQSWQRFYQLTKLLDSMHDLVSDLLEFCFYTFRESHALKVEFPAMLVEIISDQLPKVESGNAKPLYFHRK
Kind of data set: Steroid hormone nuclear receptor binding assay, MR. To be noted: HEK293 lysate, [3H]-aldosterone.

The target in data set [4] is T4, human PR (progesterone receptor) (Homo sapiens, UniProt P06401).
T4 construct: expressed in transfected cells; host or cells: HEK293
T4 sequence (P06401 1-933): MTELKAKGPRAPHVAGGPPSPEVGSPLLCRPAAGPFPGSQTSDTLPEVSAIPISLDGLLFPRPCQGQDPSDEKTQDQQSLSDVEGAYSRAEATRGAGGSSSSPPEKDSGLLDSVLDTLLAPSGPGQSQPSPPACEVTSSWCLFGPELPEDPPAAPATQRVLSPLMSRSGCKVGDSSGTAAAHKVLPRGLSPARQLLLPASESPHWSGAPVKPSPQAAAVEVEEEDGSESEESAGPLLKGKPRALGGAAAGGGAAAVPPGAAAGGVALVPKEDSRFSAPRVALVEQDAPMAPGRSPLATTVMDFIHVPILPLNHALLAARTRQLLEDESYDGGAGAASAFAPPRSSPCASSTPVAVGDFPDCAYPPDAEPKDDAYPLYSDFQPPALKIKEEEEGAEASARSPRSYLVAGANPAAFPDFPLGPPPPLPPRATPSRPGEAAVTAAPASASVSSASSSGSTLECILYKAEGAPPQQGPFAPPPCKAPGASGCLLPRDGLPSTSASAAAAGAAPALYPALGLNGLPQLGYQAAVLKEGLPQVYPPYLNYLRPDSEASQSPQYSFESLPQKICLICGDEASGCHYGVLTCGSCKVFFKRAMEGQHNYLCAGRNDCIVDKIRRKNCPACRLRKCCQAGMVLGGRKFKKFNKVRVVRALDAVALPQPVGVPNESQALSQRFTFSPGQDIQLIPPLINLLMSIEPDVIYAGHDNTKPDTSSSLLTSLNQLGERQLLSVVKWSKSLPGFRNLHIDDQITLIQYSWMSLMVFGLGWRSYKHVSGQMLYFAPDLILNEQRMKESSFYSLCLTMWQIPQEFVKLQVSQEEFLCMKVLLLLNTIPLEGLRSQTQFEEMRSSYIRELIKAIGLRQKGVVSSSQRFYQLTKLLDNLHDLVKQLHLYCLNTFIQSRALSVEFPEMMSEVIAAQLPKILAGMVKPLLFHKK
Kind of data set: Steroid hormone nuclear receptor binding assay, PR. Conditions: HEK293 lysate, [3H]-methyltrienolone.

Data set [5] addresses T5, human androgen receptor (AR) (Homo sapiens, UniProt P10275).
T5 construct: expressed in transfected cells; host or cells: mouse myoblast C2C12 cells
T5 sequence (P10275 1-920): T1 sequence (P10275 1-920)
Kind of data set: C2C12 AR/ARE reporter assay. To be noted: mouse myoblast C2C12 cells, luciferase reporter, 24 h. The class given is cell-based. A general note: Reporter assays use an easily measured gene product as a stand-in for the process of interest.

Data set [6] concerns HDL cholesterol in Cynomolgus monkeys. To be noted: transdermal delivery.
[7] abbreviates: HEK293 lysate, [3H]-dexamethasone, read-out: GR (Ki nM).

Read-outs that look alike come from different tables or passages of the source. Bounds are passed on as bounds.

As to `CCc1c(NC2CCOCC2(C)O)ccc(C#N)c1Cl` (single isomer, unassigned; diastereomer 2) [Example 32, 2-Chloro-3-ethyl-4-[[3-hydroxy-3-methyl-tetrahydropyran-4-yl]amino]benzonitrile, Diastereomer 2], the Ki – broadly, a dissociation constant, usually derived from enzyme kinetics or from competition with a known ligand – in data set [1] is 162 nM; in data set [2] (setting [7]), over 5820 nM; in data set [3], 3960 nM; in data set [4] it was 4290 nM. For the same compound, a half-maximal effect in data set [5] (EC50) was put at 0.274 µM.

For the compound `Cc1c(N[C@H]2CC[C@H](O)[C@]2(C)O)ccc(C#N)c1Cl` (single isomer, unassigned) [Example 20], the Ki in data set [1] is 38.1 nM; in data set [2] (setting [7]) it was over 5730 nM; in data set [3], over 7150 nM; in data set [4] it was over 7960 nM. In data set [5], the EC50 (in general, the concentration needed to bring the measured effect to its halfway point) stood at 0.146 µM.

With `Cc1c(N[C@@H]2CCC[C@@]2(C)O)ccc(C#N)c1Cl` (single isomer, unassigned) [Example 1], in data set [2], the inhibition constant (Ki) was over 6020 nM. For the same compound, the “effect on HDL” value in data set [6] is “minimal effect”.

The values are drawn from US8658693B2, “4-aminobenzonitrile selective androgen receptor modulators” (Eli Lilly and Company, priority 2011, dated 2014).
